Test results from ChEMBL document CHEMBL5725323, “Heterocyclic ITK inhibitors for treating inflammation and cancer” (2017).

target: T1, Tyrosine-protein kinase ITK/TSK (Homo sapiens, UniProt Q08881); test: ITK Inhibitor Binding Kinetics: This assay is based on the binding of a proprietary, Alexa Fluor 647-labeled, ATP-competitive kinase inhibitor (kinase tracer-236) to the ITK expression construct in the presence of a Europium-conjugated antibody, resulting in a FRET (fluorescence resonance energy transfer) signal. Displacement of the kinase tracer by compound results in a lower emission ratio upon excitation of the Europium chelate. Candidate compounds are designed as potential irreversible inhibitors of ITK, capable of ligating to an active site cysteine residue resulting in time dependent covalent binding. The time dependent nature of irreversible inhibition is investigated by performing the binding assay with and without a pre-incubation of compound and ITK.
T1 sequence (Q08881 whole entry): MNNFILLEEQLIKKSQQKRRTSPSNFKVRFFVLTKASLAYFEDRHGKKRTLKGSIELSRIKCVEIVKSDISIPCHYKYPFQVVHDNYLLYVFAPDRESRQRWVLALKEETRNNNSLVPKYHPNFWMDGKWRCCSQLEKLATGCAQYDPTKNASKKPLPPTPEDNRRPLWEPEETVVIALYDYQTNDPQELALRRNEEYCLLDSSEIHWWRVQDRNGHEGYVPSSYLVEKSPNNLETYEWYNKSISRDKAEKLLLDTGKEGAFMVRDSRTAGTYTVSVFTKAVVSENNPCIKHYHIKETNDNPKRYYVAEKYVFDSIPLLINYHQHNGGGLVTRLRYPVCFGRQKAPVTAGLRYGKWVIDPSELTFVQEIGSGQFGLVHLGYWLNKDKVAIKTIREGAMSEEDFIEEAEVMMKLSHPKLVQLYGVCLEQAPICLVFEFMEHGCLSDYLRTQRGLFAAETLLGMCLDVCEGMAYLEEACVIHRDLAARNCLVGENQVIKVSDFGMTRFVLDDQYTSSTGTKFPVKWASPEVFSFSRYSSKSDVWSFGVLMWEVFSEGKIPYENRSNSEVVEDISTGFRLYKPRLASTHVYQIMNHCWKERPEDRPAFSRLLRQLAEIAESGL

Row | Compound | IC50 [µM]
1 | COC/C=C/C(=O)Nc1cccc(-c2cnc3[nH]cc(-c4ccnc(OC)c4)c3c2)c1 | < 1
2 | C=CC(=O)Nc1cccc(-c2cnc3[nH]cc(-c4cncc(Cl)c4)c3c2)c1 | < 1
3 | C=CC(=O)Nc1cccc(-c2cnc3[nH]cc(-c4cccnc4)c3c2)c1 | < 1
4 | C=CC(=O)Nc1cccc(-c2cnc3[nH]cc(-c4cncc5[nH]ccc45)c3c2)c1 | < 1
5 | COc1cc(/C=C(\C#N)C(N)=O)cc(-c2cnc3[nH]cc(-c4ccnc(OC)c4)c3c2)c1 | < 1
6 | C=CC(=O)Nc1cccc(-c2cnc3[nH]cc(-c4ccnc(C)c4)c3c2)c1 | < 1
7 | C=CC(=O)Nc1cccc(-c2cnc3[nH]cc(-c4cc(C)ncn4)c3c2)c1 | < 1
8 | N#C/C(=C\c1cccc(-c2cnc3[nH]cc(-c4ccc(F)nc4)c3c2)c1)C(N)=O | < 1
9 | C=CC(=O)Nc1cccc(-c2cnc3[nH]cc(-c4cccc5cnccc45)c3c2)c1 | < 1
10 | C=CC(=O)Nc1cc(-c2cnc3[nH]cc(-c4ccnc(F)c4)c3c2)cc(C(F)(F)F)c1 | < 1
11 | C=CC(=O)Nc1cccc(-c2cnc3[nH]cc(-c4cc(C)cc(OC)n4)c3c2)c1 | < 1
12 | C=CC(=O)Nc1cccc(-c2cnc3[nH]cc(-c4cc(OC)nc(C(F)(F)F)c4)c3c2)c1 | > 1
13 | C=CC(=O)Nc1cccc(-c2cnc3[nH]cc(-c4ccc(=O)n(C)c4)c3c2)c1 | < 1
14 | C=CC(=O)Nc1cc(-c2cnc3[nH]cc(-c4cccnc4)c3c2)cc(C(F)(F)F)c1 | < 1
15 | C=CC(=O)Nc1cccc(-c2cnc3[nH]cc(-c4cc(OC)ncc4C)c3c2)c1 | < 1
16 | C=CC(=O)Nc1cccc(-c2cnc3[nH]cc(-c4ccc(F)nc4)c3c2)c1 | < 1
17 | C=CC(=O)Nc1cccc(-c2cnc3[nH]cc(-c4cccc5ccccc45)c3c2)c1 | < 1
18 | C=CC(=O)Nc1cccc(-c2cnc3[nH]cc(-c4ccc(NC)nc4)c3c2)c1 | < 1

Other lines, results leading:

Row | IC50 [µM] | Compound
19 | < 1 | C=CC(=O)NC1CN(c2cnc3[nH]cc(-c4ccnc(C#N)c4)c3c2)C1
20 | < 1 | N#C/C(=C\c1cccc(-c2cnc3[nH]cc(-c4ccncn4)c3c2)c1)C(N)=O
21 | < 1 | C=CC(=O)Nc1cncc(-c2cnc3[nH]cc(-c4cn(C)c(=O)c5[nH]ccc45)c3c2)c1
22 | < 1 | C=CC(=O)Nc1cccc(-c2cnc3[nH]cc(-c4ccc(=O)n(CC(C)(C)O)c4)c3c2)c1
23 | < 1 | C=CC(=O)Nc1cccc(-c2cnc3[nH]cc(-c4ccc(OCC5CC5)nc4)c3c2)c1
24 | < 1 | C=CC(=O)Nc1cc(C#N)cc(-c2cnc3[nH]cc(-c4ccncc4)c3c2)c1
25 | < 1 | C=CC(=O)Nc1cccc(-c2cnc3[nH]cc(-c4ccc(OC)nc4)c3c2)c1
26 | < 1 | C=C(C)C(=O)Nc1cc(-c2cnc3[nH]cc(-c4ccnc(OC)c4)c3c2)cc(-c2cnn(C)c2)n1
27 | < 1 | C=CC(=O)Nc1cc(-c2cnc3[nH]cc(-c4ccc(F)nc4)c3c2)cc(C(F)(F)F)c1
28 | < 1 | C=CC(=O)Nc1cccc(-c2cnc3[nH]cc(-c4ccnc5[nH]ccc45)c3c2)c1

target: T1, Tyrosine-protein kinase ITK/TSK; test: ITK Target Modulation PLC-gamma Assay: Compounds were serially diluted into DMSO, and then into media to concentrations 10× that of the final assay concentration. Compounds were then added to the cells with the final assay DMSO concentration being 0.1%. Cells were incubated for 1 hour at 37° C. Following compound incubation, αCD3 Dynabeads were added at 1 bead/cell to each assay well and incubated at 37° C. for 7 minutes. Unstimulated control wells received media only. The plate was then placed on a 96-well magnetic plate for an additional 60 seconds (total assay stimulation time equals 8 minutes). The plate was then dumped and gently patted dry on a paper towel. 50 ul of complete Meso Scale Discovery (MSD) Lysis buffer was then added to each well. Samples were assayed for phospho-PLCγ1 using Meso Scale Discovery technology.

Row | Compound | IC50 [µM]
29 | C=CC(=O)Nc1cccc(-c2cnc3[nH]cc(-c4ccnc5ccccc45)c3c2)c1 | 1 to 5
30 | C=CC(=O)Nc1cccc(-c2cnc3[nH]cc(-c4cccc(OC)c4)c3c2)c1 | 1 to 5
31 | C=CC(=O)Nc1cc(-c2cnc3[nH]cc(-c4ccc(OC)nc4)c3c2)cc(C(F)(F)F)c1 | 1 to 5
32 | C=CC(=O)Nc1cc(-c2cnc3[nH]cc(-c4ccncc4)c3c2)cc(C(F)(F)F)c1 | < 1
33 | C=CC(=O)Nc1cccc(-c2cnc3[nH]cc(-c4ccccc4C)c3c2)c1 | 1 to 5
34 | C=CC(=O)Nc1cccc(-c2cnc3[nH]cc(-c4cccc(C#N)c4)c3c2)c1 | 1 to 5
35 | C=CC(=O)Nc1cccc(-c2cnc3[nH]cc(-c4cccc5ncccc45)c3c2)c1 | 1 to 5
36 | C=CC(=O)Nc1cccc(-c2cnc3[nH]cc(-c4cn(CC5CC5)c(=O)c5[nH]ccc45)c3c2)c1 | 1 to 5
37 | C=CC(=O)Nc1cc(-c2cnc3[nH]cc(-c4ccnc(OC)c4)c3c2)cc(C(O)(CC)CC)c1 | 1 to 5
38 | C=CC(=O)Nc1cc(-c2cnc3[nH]cc(-c4ccnc(OC)c4)c3c2)cc(-c2cnn(C)c2)c1 | < 1

Next, values leading:

Row | IC50 [µM] | Compound
39 | 1 to 5 | C=CC(=O)Nc1cccc(-c2cnc3[nH]cc(-c4cccc5[nH]ccc45)c3c2)c1
40 | < 1 | C=CC(=O)Nc1cccc(-c2cnc3[nH]cc(-c4ccnc(F)c4)c3c2)c1
41 | 1 to 5 | C=CC(=O)Nc1cccc(-c2cnc3[nH]cc(-c4cc(C)nc(OC)c4)c3c2)c1
42 | < 1 | C=CC(=O)Nc1cccc(-c2cnc3[nH]cc(-c4ccc(=O)n(CC5CC5)c4)c3c2)c1
43 | 1 to 5 | C=CC(=O)Nc1cccc(-c2cnc3[nH]cc(-c4cc(NC)ncn4)c3c2)c1
44 | < 1 | C=CC(=O)Nc1cccc(-c2cnc3[nH]cc(-c4ccncn4)c3c2)c1
45 | > 5 | C=CC(=O)Nc1cccc(-c2cnc3[nH]cc(-c4cccc5occc45)c3c2)c1
46 | < 1 | C=CC(=O)Nc1cccc(-c2cnc3[nH]cc(-c4ccnc(NC)c4)c3c2)c1
47 | < 1 | C=CC(=O)Nc1cccc(-c2cnc3[nH]cc(-c4ccnc(NC)n4)c3c2)c1
48 | 1 to 5 | Cc1cc(-c2c[nH]c3ncc(-c4cccc(/C=C(\C#N)C(N)=O)c4)cc23)ccn1
49 | < 1 | C=CC(=O)Nc1cc(OC)cc(-c2cnc3[nH]cc(-c4ccncc4)c3c2)c1
